“And” between values parts separate entries of the source, which are not always exact repeats. Equal entries are not always repeated. Where two headings read alike, the source gives them in different places.
Assays:
in vitro = details: human, Caco-2, pH 7.4, % Solution Recovery
Experimental: Caco-2 cells purchased from ATCC were seeded onto […] (PET) in 96-well Corning Insert plates at 1×10^5 cells/cm^2, and refreshed medium every 4˜5 days until to the 21st to 28th day for confluent cell monolayer formation.
The transport buffer in the study was HBSS with 10.0 mM HEPES at pH 7.40±0.05. Test compound was tested at 2.00 μM bi-directionally in duplicate. Digoxin was tested at 10.0 μM bi-directionally in duplicate, while nadolol and metoprolol were tested at 2.00 μM in A to B direction in duplicate. Final DMSO concentration was adjusted to less than 1%. The plate was incubated for 2 hours in CO2 incubator at 37±1° C., with 5% CO2 at saturated humidity without shaking. And all samples after mixed with acetonitrile containing internal standard were centrifuged at 3200×g for 10 min. For nadolol and metoprolol, 200 μL supernatant solution was diluted with 600 μL ultra-pure water for LC-MS/MS analysis. For digoxin and test compounds, 200 μL supernatant solution was diluted with 200 μL ultra-pure water for LC-MS/MS analysis. Concentrations of test and control compounds in starting solution, donor solution, and receiver solution were quantified by LC-MS/MS methodologies, using peak area ratio of analyte/internal standard. After transport assay, lucifer yellow rejection assay was applied to determine the Caco-2 cell monolayer integrity.
The apparent permeability coefficient Papp (cm/s) was calculated using the equation: […]
Where dCp/dt is the cumulative concentration of compound in the receiver chamber as a function of time (μM/s); Vr is the solution volume in the receiver chamber (0.075 mL on the apical side, 0.25 mL on the basolateral side); A is the surface area for the transport, i.e. 0.0804 cm^2 for the area of the monolayer; Co is the initial concentration in the donor chamber (μM). The efflux ratio was calculated using the equation: […]
Percent recovery was calculated using the equation: […]
Where Vd is the volume in the donor chambers (0.075 mL on the apical side, 0.25 mL on the basolateral side); Ca and Cr are the final concentrations of transport compound in donor and receiver chambers, respectively.

[1] = Crossover pharmacokinetic study of Bumetanide Dibenzylamide formulations (IN, SL, IM, PO, SC, IR) in Beagle dogs, plasma LC-MS/MS; assay type: in vivo; details: for half-life: read-out: t½ (converted)
Experimental: Male and female Beagle dogs are assigned to two groups with 2 males and 2 females in each group. The study is conducted in 3 legs with Leg 1 consisting of IM and SL administration, Leg 2 consisting of IN and PO administration, and Leg 3 consisting of SC and IR administration.
During intranasal administration, the composition is administered by gently tilting the animals head back and the intranasal dose is delivered via a syringe and atomizer. During sublingual administration, the composition is administered via a quick dissolving tablet. The tablet is placed in the sublingual space and the mouth held shut for approximately 60-90 seconds. After one minute, the mouth of the animal is opened to confirm that the tablet has fully dissolved. During intramuscular administration, the composition is administered into the bicep femoris (rear thigh). The dose site is gently shaved prior to dosing. A syringe with a 25 g needle is utilized. During oral administration, the composition is administered via three capsules placed at the back of the animal's mouth and the placement is followed by a 10 mL drinking water flush to assure that the animal swallowed the capsules. During subcutaneous administration, the composition is administered into the dorsal subcutaneous space directly at the scruff of the neck of the animal. The dose site is gently shaved prior to dosing. A syringe with a 25 g needle is utilized. During intrarectal administration, the composition is administered by gently placing a 1 cc syringe in the rectum of the animal.
All animals are fasted for approximately 12 hours prior to dosing. Animals are fed four hours post dosing with water offered ad libitum throughout the study. All animals completed the study. […] Blood and urine samples are collected out to 24 hours.
Blood sample are collected from the jugular vein, or other suitable vessel via direct venipuncture, placed into a chilled tube containing K2EDTA as the anticoagulant, and inverted several times to mix. Blood samples are kept on wet ice until centrifugation.
The assay is verified with respect to standard bioanalytical methodology including acceptable accuracy and precision based upon quality control sample analysis and results. The range of the method for both analytes is from about 0.250 ng/ml to about 250 ng/mL.
The PK parameters defined in Table 10 are calculated by non-compartmental methods using individual animal concentration-time data. […] Nominal blood sampling times are used in the analysis. […] Individual below quantitation limits (BQL) results are set to zero for all calculations. No animals are excluded from the analysis. In one aspect, non-compartmental pharmacokinetic analysis provides observed or calculated values of Cmax, Tmax, and AUClast for all animals and estimates of AUCinf and CL/F for those animals where a terminal phase half-life (t1/2) could be estimated.

[2] = both sexes, Beagle, dog, plasma, po, 30 mg, PO capsules
[3] = both sexes, Beagle, dog, plasma, sc, 15 mg

With `CCCCNc1cc(C(=O)N(Cc2ccccc2)Cc2ccccc2)cc(S(N)(=O)=O)c1Oc1ccccc1` [Bumetanide Dibenzylamide, N, N-dibenzyl 3-aminosulfonyl-5-butylamino-4-phenoxybenzamide] the recovery at 2 h, 2 μM (in vitro) was less than 50%, the AUCinf ([1]; IN, 15 mg) was 234 ng·h/mL and 224 ng·h/mL and 164 ng·h/mL and 221 ng·h/mL and the CL/F ([1]; IN, 15 mg) was 64.1 L/h and 66.8 L/h and 91.5 L/h and 67.7 L/h. The “Plasma Bumetanide Dibenzylamide concentration” value ([1]; IN, 15 mg, 24 h) was 3.15 ng/mL and 2.07 ng/mL and 1.59 ng/mL, the “Plasma Bumetanide Dibenzylamide concentration” value ([1]; IN, 15 mg, 24 h, mean) was 2.31 ng/mL and the CL/F ([1]; IN, 15 mg, mean) was 72.5 L/h. For the same compound, the “Mean concentrations of Bumetanide Dibenzylamide” value ([1]; IR, 30 mg, at all times after dosing) was “less than 10 ng/mL”, the AUCinf ([1]; PO capsules, 30 mg) was 980 ng·h/mL and 698 ng·h/mL and 666 ng·h/mL and 910 ng·h/mL and the AUClast ([1]; PO capsules, 30 mg) was 675 ng·h/mL and 639 ng·h/mL and 893 ng·h/mL. For the same compound, the CL/F ([1]; PO capsules, 30 mg) was 30.6 L/h and 43.0 L/h and 45.0 L/h and 33.0 L/h, the Cmax ([1]; PO capsules, 30 mg) was 280 ng/mL and 158 ng/mL and 175 ng/mL and 259 ng/mL and the t½ ([1]; PO capsules, 30 mg) was 5.62 h and 6.79 h and 5.10 h. The “Plasma Bumetanide Dibenzylamide concentration” value ([1]; PO capsules, 30 mg, 2 h) was 280 ng/mL and 158 ng/mL and 175 ng/mL, the “Plasma Bumetanide Dibenzylamide concentration” value ([1]; PO capsules, 30 mg, 2 h, mean) was 218 ng/mL and the “Plasma Bumetanide Dibenzylamide concentration” value ([1]; PO capsules, 30 mg, 4 h) was 85.3 ng/mL and 68.7 ng/mL and 56.9 ng/mL. The “Plasma Bumetanide Dibenzylamide concentration” value ([1]; PO capsules, 30 mg, 4 h, mean) was 76.7 ng/mL, the “Plasma Bumetanide Dibenzylamide concentration” value ([1]; PO capsules, 30 mg, 8 h) was 21.2 ng/mL and 21.9 ng/mL and 15.7 ng/mL and the “Plasma Bumetanide Dibenzylamide concentration” value ([1]; PO capsules, 30 mg, 8 h, mean) was 20.1 ng/mL. For the same compound, the “Plasma Bumetanide Dibenzylamide concentration” value ([1]; PO capsules, 30 mg, 12 h) was 8.65 ng/mL and 10.5 ng/mL and 7.91 ng/mL, the “Plasma Bumetanide Dibenzylamide concentration” value ([1]; PO capsules, 30 mg, 12 h, mean) was 9.34 ng/mL and the “Plasma Bumetanide Dibenzylamide concentration” value ([1]; PO capsules, 30 mg, 24 h) was 2.86 ng/mL and 2.84 ng/mL and 2.83 ng/mL. The “Plasma Bumetanide Dibenzylamide concentration” value ([1]; PO capsules, 30 mg, 24 h, mean) was 2.71 ng/mL, the AUClast ([1]; PO capsules, 30 mg, mean) was 791 ng·h/mL and the CL/F ([1]; PO capsules, 30 mg, mean) was 37.9 L/h. The t½ ([1]; PO capsules, 30 mg, mean) was 5.85 h, the AUCinf ([1]; SC, 15 mg) was 286 ng·h/mL and 247 ng·h/mL and 158 ng·h/mL and the AUClast ([1]; SC, 15 mg) was 79.8 ng·h/mL and 129 ng·h/mL and 91.3 ng·h/mL. The CL/F ([1]; SC, 15 mg) was 52.4 L/h and 64.8 L/h and 60.7 L/h and 94.7 L/h, the t½ ([1]; SC, 15 mg) was 36.2 h and 22.2 h and 19.1 h and the “Plasma Bumetanide Dibenzylamide concentration” value ([1]; SC, 15 mg, 0 h) was 1.65 ng/mL and 2.39 ng/mL and 1.55 ng/mL. The “Plasma Bumetanide Dibenzylamide concentration” value ([1]; SC, 15 mg, 0 h, mean) was 1.75 ng/mL, the “Plasma Bumetanide Dibenzylamide concentration” value ([1]; SC, 15 mg, 0.5 h) was 2.76 ng/mL and 3.42 ng/mL and 1.81 ng/mL and the “Plasma Bumetanide Dibenzylamide concentration” value ([1]; SC, 15 mg, 0.5 h, mean) was 2.52 ng/mL. The “Plasma Bumetanide Dibenzylamide concentration” value ([1]; SC, 15 mg, 8 h) was 4.54 ng/mL and 7.47 ng/mL and 4.14 ng/mL, the “Plasma Bumetanide Dibenzylamide concentration” value ([1]; SC, 15 mg, 8 h, mean) was 5.71 ng/mL and the “Plasma Bumetanide Dibenzylamide concentration” value ([1]; SC, 15 mg, 12 h) was 3.35 ng/mL and 5.77 ng/mL and 3.22 ng/mL. For the same compound, the “Plasma Bumetanide Dibenzylamide concentration” value ([1]; SC, 15 mg, 12 h, mean) was 4.36 ng/mL, the “Plasma Bumetanide Dibenzylamide concentration” value ([1]; SC, 15 mg, 24 h) was 2.43 ng/mL and 4.30 ng/mL and 2.90 ng/mL and the “Plasma Bumetanide Dibenzylamide concentration” value ([1]; SC, 15 mg, 24 h, mean) was 3.33 ng/mL. The AUClast ([1]; SC, 15 mg, mean) was 113 ng·h/mL, the CL/F ([1]; SC, 15 mg, mean) was 68.2 L/h and the t½ ([1]; SC, 15 mg, mean) was 24.8 h. The CL/F ([1]; SL, 30 mg) was 1690 L/h, the Tmax ([1]; SL, 30 mg) was 1.00 h and the Tmax ([1]; SL, 30 mg, mean) was 1.50 h. For the same compound, the adverse reactions ([1]; all routes, 15 or 30 mg) was “no adverse reactions are noted”, the AUC(0-inf) ([1]; both sexes, Beagle, dog, plasma, 30 mg, IR) was 55.1 ng·h/mL and the Cmax ([1]; both sexes, Beagle, dog, plasma, 30 mg, IR, 30 mg, read-out: mean Cmax) was 8.44 ng/mL. The AUC(0-inf) ([1]; both sexes, Beagle, dog, plasma, 30 mg, SL) was 17.7 ng·h/mL, the Tmax ([1]; both sexes, Beagle, dog, plasma, 30 mg, SL, 30 mg, read-out: Tmax) was 2 h and the half-life ([1]; both sexes, Beagle, dog, plasma, 30 mg, SL, 30 mg) was 5.26 h. It also gave an AUC(0-inf) ([1]; both sexes, Beagle, dog, plasma, inhaled or intranasal, 15 mg, IN) of 211 ng·h/mL, an AUC(0-inf) [1, 2] of 814 ng·h/mL and an AUC(0-t) [1, 2] of 956 ng·h/mL. For the same compound, the Cmax ([1]; both sexes, Beagle, dog, plasma, po, 30 mg, PO capsules, 30 mg, read-out: Cmax) was 218 ng/mL, the Tmax ([1]; both sexes, Beagle, dog, plasma, po, 30 mg, PO capsules, 30 mg, read-out: Tmax) was 2 h and the half-life ([1]; both sexes, Beagle, dog, plasma, po, 30 mg, PO capsules, 30 mg) was 5.89 h. For the same compound, the AUC(0-inf) [1, 3] was 231 ng·h/mL, the AUC(0-t) [1, 3] was 153 ng·h/mL and the half-life ([1]; both sexes, Beagle, dog, plasma, sc, 15 mg, SC, 15 mg) was 21.5 h.
